Counter-ions that a name gives are not always drawn.
Assays:
CYP1A2 = molecular target: T1, CYP1A2 (Homo sapiens, UniProt P05177); assay: P450 enzyme inhibition, CYP1A2; format: in vitro ADME; conditions: human liver microsomes
T1 construct: human liver microsomes (BD Gentest) (0.5 mg/mL); tissue BD Gentest; host or cells: human liver microsomes
T1 sequence (P05177 1-516): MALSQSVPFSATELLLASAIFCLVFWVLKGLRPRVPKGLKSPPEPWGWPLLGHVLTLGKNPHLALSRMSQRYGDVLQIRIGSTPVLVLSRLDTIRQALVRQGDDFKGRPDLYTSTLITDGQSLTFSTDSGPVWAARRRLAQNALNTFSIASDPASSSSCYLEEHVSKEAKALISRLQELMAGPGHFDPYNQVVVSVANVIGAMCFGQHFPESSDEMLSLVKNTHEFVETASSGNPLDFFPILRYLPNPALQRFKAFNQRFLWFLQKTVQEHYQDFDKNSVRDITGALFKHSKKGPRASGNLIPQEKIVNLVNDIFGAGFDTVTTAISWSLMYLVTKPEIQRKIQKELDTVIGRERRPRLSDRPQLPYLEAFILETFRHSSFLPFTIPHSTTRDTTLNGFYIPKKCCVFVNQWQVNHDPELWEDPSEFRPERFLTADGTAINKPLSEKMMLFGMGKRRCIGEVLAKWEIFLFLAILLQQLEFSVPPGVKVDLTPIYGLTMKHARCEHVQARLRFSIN
Description: (§1) Eight cytochrome p450 enzyme inhibition reactions of human liver microsomes were performed using compound 77 of the present invention as a representative example.
(§2) The main reaction systems and processes: in 37° C. water bath, the test compounds (7 concentrations, 0, 0.25, 0.5, 5, 10, 25, and 50 uM; the final methanol concentration was 1% in the system), human liver microsomes (BD Gentest) (0.5 mg/mL) and reducing coenzyme II (Roche 10621706001) (1 mg/mL) and the corresponding cytochrome p450 enzyme probe substrate were co-incubated for 5 to 20 minutes. Among them, (1) the probe substrate for CYP1A2 was Phenacetin ([…]) (Sigma), and the selective inhibitor alpha-naphthoflavone (2 uM) (Sigma) was for parallel detection as positive control, and they were incubated for 20 minutes. (2) The probe substrate for CYP2b6 was Bupropion (40 uM) (Sigma) and the selective inhibitor Ticlopidine (10 uM) (Sigma) was for parallel detection as positive control, and they were incubated for 20 minutes. (3) The probe substrate of CYP2C8 was Amodiaquine (1 uM) (Sigma), and the selective inhibitor Montelukast (10 uM) (Sigma) was for parallel detection as positive control, and they were incubated for 20 minutes. (4) The probe substrate for CYP2C9 was Diclofenac (2.5 uM) (Sigma), and the selective inhibitor Sulphaphenazole (10 uM) (Sigma) was for parallel detection as positive control, and they were incubated for 20 minutes. (5) The probe substrate for CYP2C19 was Mephenytoin (40 uM) (Sigma), and the selective inhibitor Ticlopidine (10 uM) (Sigma) was for parallel detection as positive control, and they were incubated for 20 minutes. (6) The probe substrate for CYP2D6 was Dextromethorphan (5 uM) (Sigma), and the selective inhibitor Quinidine (10 uM) (Sigma) was for parallel detection as positive control, and they were incubated for 20 minutes. (7) The probe substrates for CYP3A4-T and CYP3A4-M were Testosterone (5 uM) (Sigma) and Midazolam (5 uM) (Sigma), respectively, and the selective inhibitor was Ketoconazole (1 uM) (Sigma), they were detected in parallel as positive control, and incubated for 5 minutes. The reaction system was quenched by adding methanol containing the corresponding internal standard. The internal standard compound was Tolbutamide (Sigma). The concentration of the corresponding metabolites was determined by LC/MS/MS. For the data analysis, the decrease in peak area of the metabolite of the sample after addition of compound 77 relative to the peak area of the metabolite of the solvent control sample was used to calculate the IC50 (concentration of the test substance at 50% inhibition). The percentages of peak areas of metabolites of CYP1A2, CYP2B6, CYP2C8, CYP2C9, 15CYP2C19, CYP2D6, CYP3A4-T, and CYP3A4-M probe substrates after addition of different concentrations of compound 77 and selective inhibitors relative to the solvent control peak areas were shown in the Table 7.

CYP2C9 = molecular target: T2, CYP2C9 (Homo sapiens, UniProt P11712); assay: P450 enzyme inhibition, CYP2C9; format: in vitro ADME; conditions: human liver microsomes
T2 construct: human liver microsomes (BD Gentest) (0.5 mg/mL); tissue BD Gentest; host or cells: human liver microsomes
T2 sequence (P11712 whole entry): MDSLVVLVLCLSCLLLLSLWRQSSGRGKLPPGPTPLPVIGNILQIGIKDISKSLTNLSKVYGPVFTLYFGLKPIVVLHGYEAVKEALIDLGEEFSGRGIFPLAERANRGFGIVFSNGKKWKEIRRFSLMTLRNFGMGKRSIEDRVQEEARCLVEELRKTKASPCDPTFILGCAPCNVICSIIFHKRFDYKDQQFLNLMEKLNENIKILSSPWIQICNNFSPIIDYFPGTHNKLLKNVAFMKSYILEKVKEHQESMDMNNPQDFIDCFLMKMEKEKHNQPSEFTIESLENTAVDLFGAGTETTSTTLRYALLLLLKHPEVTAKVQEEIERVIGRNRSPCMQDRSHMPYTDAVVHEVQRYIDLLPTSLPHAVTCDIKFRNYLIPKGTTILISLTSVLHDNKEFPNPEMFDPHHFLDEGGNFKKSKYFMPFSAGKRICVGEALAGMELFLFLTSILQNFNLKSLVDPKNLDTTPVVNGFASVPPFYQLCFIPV
Description: as §1, §2

CYP2C19 = molecular target: T3, CYP2C19 (Homo sapiens, UniProt P33261); assay: P450 enzyme inhibition, CYP2C19; format: in vitro ADME; conditions: human liver microsomes
T3 construct: human liver microsomes (BD Gentest) (0.5 mg/mL); tissue BD Gentest; host or cells: human liver microsomes
T3 sequence (P33261 whole entry): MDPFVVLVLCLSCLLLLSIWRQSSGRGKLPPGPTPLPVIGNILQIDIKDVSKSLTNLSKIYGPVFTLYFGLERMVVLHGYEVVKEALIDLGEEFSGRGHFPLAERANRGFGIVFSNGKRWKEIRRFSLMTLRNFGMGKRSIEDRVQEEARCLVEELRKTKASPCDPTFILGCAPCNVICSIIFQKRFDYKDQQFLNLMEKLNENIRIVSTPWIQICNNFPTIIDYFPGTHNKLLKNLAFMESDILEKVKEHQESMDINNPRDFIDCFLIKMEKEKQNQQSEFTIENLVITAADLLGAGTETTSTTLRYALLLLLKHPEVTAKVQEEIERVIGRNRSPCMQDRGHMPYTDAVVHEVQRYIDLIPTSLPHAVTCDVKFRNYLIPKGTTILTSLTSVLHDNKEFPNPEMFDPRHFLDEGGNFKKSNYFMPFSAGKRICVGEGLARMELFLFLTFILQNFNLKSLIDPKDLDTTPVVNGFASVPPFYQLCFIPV
Description: as §1, §2

[1] = Long-term oral toxicity in mice, effect on blood cells; format: in vivo, mouse; conditions: ICR mice; for mortality rate / weight reduced compared with the control group: oral once a day, to the 40th day
Description: Study on the long-term oral toxicity in mice was performed with compound 77 of the present invention as a representative example.
Procedure: 6-week-old ICR mice purchased from Shanghai Sippr-BK Experimental Animal Co., Ltd. were selected with half males and half females, and the animals were randomly divided with 6 mice each group. The test and control groups were orally given once a day for 40 consecutive days, respectively. The body weight and physiological and pathological features of the mice were observed and recorded every day. The drug doses of the test group were 500 mg/kg, 350 mg/kg, and 250 mg/kg of the methanesulfonate of compound 77 in 20% HP-β-CD clear aqueous solution, respectively (the formulation method was the same as that of the test example 10), and the control group was the 20% HP-β-CD aqueous solution.

[2] = oral once a day for 40 days, 250-500 mg/kg

Compound: COCCOc1ccc2c(c1)ncn2-c1ccc(NC(=O)Nc2cc(C(C)(C)C)n[nH]2)cc1 [Compound 77, 1-(5-tert-butyl-2H-pyrazol-3-yl)-3-{4-[5-(2-methoxyl-ethoxyl)-benzimidazol-1-yl]-phenyl}-urea]
- CYP1A2 Remaining % (CYP1A2; Concentration 0.25 uM): 95.7%
- CYP1A2 Remaining % (CYP1A2; Concentration 0.5 uM): 99.8%
- CYP1A2 Remaining % (CYP1A2; Concentration 5 uM): 94.1%
- CYP1A2 Remaining % (CYP1A2; Concentration 10 uM): 92.1%
- CYP1A2 Remaining % (CYP1A2; Concentration 25 uM): 80.9%
- CYP1A2 Remaining % (CYP1A2; Concentration 50 uM): 63.4%
- IC50 (CYP1A2; read-out: half-inhibitory concentration (IC50) of CYP1A2): > 50 µM
- CYP2C9 Remaining % (CYP2C9; Concentration 0.25 uM): 99.6%
- CYP2C9 Remaining % (CYP2C9; Concentration 0.5 uM): 104.5%
- CYP2C9 Remaining % (CYP2C9; Concentration 5 uM): 99.0%
- CYP2C9 Remaining % (CYP2C9; Concentration 10 uM): 90.9%
- CYP2C9 Remaining % (CYP2C9; Concentration 25 uM): 72.5%
- CYP2C9 Remaining % (CYP2C9; Concentration 50 uM): 39.9%
- IC50 (CYP2C9; read-out: half-inhibitory concentration (IC50) of CYP2C9): 41.6 µM
- CYP2C19 Remaining % (CYP2C19; Concentration 0.25 uM): 104.2%
- CYP2C19 Remaining % (CYP2C19; Concentration 0.5 uM): 100.8%
- CYP2C19 Remaining % (CYP2C19; Concentration 5 uM): 106.9%
- CYP2C19 Remaining % (CYP2C19; Concentration 10 uM): 102.9%
- CYP2C19 Remaining % (CYP2C19; Concentration 25 uM): 91.3%
- CYP2C19 Remaining % (CYP2C19; Concentration 50 uM): 67.6%
- IC50 (CYP2C19; read-out: half-inhibitory concentration (IC50) of CYP2C19): > 50 µM

Compound: COCCOc1ccc2c(c1)ncn2-c1ccc(NC(=O)Nc2cc(C(C)(C)C)n[nH]2)cc1 [Compound 77 Mesylate, 1-(5-tert-butyl-2H-pyrazol-3-yl)-3-{4-[5-(2-methoxyl-ethoxyl)-benzimidazol-1-yl]-phenyl}-urea]
- effect on the number of other blood cells [1, 2]: no significant effect
- reticulocytes decreased by [1, 2]: 10%-30%
- mortality rate ([1]; 250 mg/kg): 0%
- weight reduced compared with the control group ([1]; 250 mg/kg): 8.2%
- mortality rate ([1]; 350 mg/kg): 16.7%
- weight reduced compared with the control group ([1]; 350 mg/kg): 23.1%
- mortality rate ([1]; 500 mg/kg): 66.7%
- weight reduced compared with the control group ([1]; 500 mg/kg): 34.7%

Source: patent US10647680B2, “Urea compound, preparation method therefor and medical use thereof” (Ancureall Pharmaceutical (Shanghai) Co., Ltd., priority 2016, dated 2020)
